Assay results reported in ChEMBL document CHEMBL1132162, “Microanalysis of a selective potent anti-Helicobacter pylori compound in a Brazilian medicinal plant, Myroxylon peruiferum and the activity of analogues” (1999).
≈ marks a conversion by molar mass, not a printed value. Calls of active or inactive are those of the source. No cut-off for these calls is given here.

Legend:
Helicobacter pylori = experiment: Anti-bacterial activity against Helicobacter pylori; format: functional
Bacteroides fragilis = experiment: Anti-microbial activity against gram-positive bacteria Bacteroides fragilis at 625 ug/mL concentration; Inactive; format: functional, organism-based
Candida albicans = experiment: Anti-microbial activity against yeast candida albicans at 625 ug/mL concentration; Inactive; format: functional, organism-based
Saccharomyces cerevisiae = experiment: Anti-microbial activity against yeast Saccharomyces cerevisiae at 625 ug/mL concentration; Inactive; format: functional, organism-based
Micrococcus luteus = experiment: Anti-microbial activity against gram-positive bacteria Micrococcus lutea at 625 ug/mL concentration; Inactive; format: functional, organism-based
Escherichia coli = experiment: Anti-microbial activity against gram-negative bacteria Escherichia coli at 625 ug/mL concentration; Inactive; format: functional, organism-based
Bacillus subtilis = experiment: Anti-microbial activity against gram-positive bacteria Bacillus subtilis at 625 ug/mL concentration; Inactive; format: functional, organism-based
Pseudomonas aeruginosa = experiment: Anti-microbial activity against gram-negative bacteria Pseudomonas aeruginosa at 625 ug/mL concentration; Inactive; format: functional, organism-based

Row | Compound | MIC (Helicobacter pylori) [µg/mL] | further results
1 | COc1ccc(CC(=O)c2ccc(OC)cc2)cc1 | > 20 | 
2 | COc1ccc2c(=O)cc(-c3ccc(OC)c(OC)c3)oc2c1 [7,3',4'-Trimethoxyflavone] | > 20 | 
3 | COc1ccc2c(c1)OC=C(c1ccc(OC)c(OC)c1)[C@@H]2O | 16 (≈ 50.9 µM) | 
4 | COc1ccc(-c2coc3cc(OC)ccc3c2=O)cc1 | > 20 | 
5 | COc1ccc(-c2coc3cc(OC)c(OC)cc3c2=O)cc1 | > 20 | 
6 | O=c1c(-c2ccc(O)c(O)c2)coc2cc(O)ccc12 | > 20 | 
7 | COc1ccc2c(c1)OC=C(c1ccc(OC)c(OC)c1)[C@H]2O | 16 (≈ 50.9 µM) | 
8 | COc1ccc2c(c1)OCC(c1ccc(OC)c(OC)c1)C2=O (stereo not given) | > 20 | 
9 | COc1ccc2c(=O)c(-c3ccc(OC)c(OC)c3)coc2c1 | 7.8 (≈ 25 µM) | Activity (Bacteroides fragilis): inactive; Activity (Candida albicans): inactive; Activity (Saccharomyces cerevisiae): inactive; Activity (Micrococcus luteus): inactive; Activity (Escherichia coli): inactive; Activity (Bacillus subtilis): inactive; Activity (Pseudomonas aeruginosa): inactive
10 | COc1ccc(-c2coc3cc(OC)cc(OC)c3c2=O)cc1 [BIOCHANIN A, DIMETHYL ETHER] | > 20 | 
11 | O=c1ccoc2ccccc12 [CHROMONE] | > 20 | 
12 | CCOc1ccc2c(=O)c(-c3ccc(OCC)c(OCC)c3)coc2c1 | 18 (≈ 50.8 µM) | 
13 | COc1ccc(C)cc1OC | > 20 | 
